Reference: US20230124548A1, “Therapeutic Methods And Uses Thereof” (Eustralis Pharmaceuticals Limited (Trading As Pressura …, priority 2019, published 2023)
Where two headings read alike, the source gives them in different places.

Key:
central NK1 receptors = molecular target: T1, central NK1 receptors (Homo sapiens, UniProt P25103); test: Phase 1 apomorphine challenge study: blocking of apomorphine induced emesis in healthy volunteers; assay type: in vivo; conditions: for Average Number of Retches or Vomits / Number of Retches (Events) / Number of Retches (Subjects) / Number of Vomits (Subjects) / Number of Vomits (Events): N = 5
T1 construct: from tissue; host or cells: central nervous system of healthy human volunteers (in vivo)
T1 sequence (P25103 whole entry): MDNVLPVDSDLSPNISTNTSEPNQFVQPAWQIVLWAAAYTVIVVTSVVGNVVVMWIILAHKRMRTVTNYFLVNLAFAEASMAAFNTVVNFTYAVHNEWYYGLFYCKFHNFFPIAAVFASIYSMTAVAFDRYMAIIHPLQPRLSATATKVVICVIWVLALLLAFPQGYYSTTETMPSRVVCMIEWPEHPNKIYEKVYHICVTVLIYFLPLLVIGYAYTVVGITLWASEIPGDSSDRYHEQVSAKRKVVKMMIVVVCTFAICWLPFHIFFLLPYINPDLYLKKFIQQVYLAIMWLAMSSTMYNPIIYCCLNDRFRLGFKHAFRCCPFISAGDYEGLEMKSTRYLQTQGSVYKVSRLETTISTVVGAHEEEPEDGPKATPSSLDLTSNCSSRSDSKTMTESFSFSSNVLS
Description: (§1) A pharmacodynamic study to assess functional blocking of central NK1 receptors was performed in healthy volunteers. This was done by testing the efficacy of the compound in blocking apomorphine induced emesis. This study indicates the need for a minimum concentration of the initial peak at infusion to obtain efficacious levels, rather than minimal plasma-levels at the time of apomorphine challenge.
(§2) In the phase 1 apomorphine challenge study the ability of the compound to block emesis induced by apomorphine was tested in healthy volunteers. […] At neither time point did subjects require rescue medication to prevent uncontrolled vomiting. On the other hand, when the apomorphine challenge was performed 2 hours after a 30 mg dose (n=5), an average of 4.2 retches and vomits were observed, which would have been even higher had two of five subjects not received rescue medication to block the apomorphine effects. Importantly the plasma concentration of the Compound 2 hours after the 30 mg dose was 60% higher than the plasma concentration 20 hours after the 90 mg dose.

[1] = Plasma concentrations in the apomorphine challenge study; assay type: in vivo, human
Description: as §1, §2

[2] = Intracranial pressure (ICP) curves in clinical trial patients, slow 2-hour infusion; assay type: in vivo, human; conditions: two patients, slow infusion over 2 hours
Description: In order to avoid any potential safety issues, the infusion in human clinic trials was slowed down to 2 hours to generate the same AUC but a lower Cmax.
However two patients were treated in a clinical trial, using a slow infusion rate over a timespan of 2 hours.

[3] = Solubility assessment and pH of solution; assay type: physicochemical
Description: Ethanol was also assessed as part of this study.

[4] = 30 mg, apomorphine challenge 2 h after dose
[5] = 90 mg, apomorphine challenge 2 h after dose
[6] = 90 mg, apomorphine challenge 20 h after dose

plasma concentration 2 hours after the 30 mg dose, higher than plasma concentration 20 hours after the 90 mg dose ([1]; 30 mg/2 h versus 90 mg/20 h): 60%
Cmax ([1]; human, plasma, intravenous, 30 mg, apomorphine challenge 2 h after dose, N = 5, read-out: Cmax at end of infusion): 252 ng/mL
Cmax ([1]; human, plasma, intravenous, 90 mg, apomorphine challenge 2 h after dose, N = 5, read-out: Cmax at end of infusion): 1040 ng/mL
Cmax ([1]; human, plasma, intravenous, 90 mg, apomorphine challenge 20 h after dose, N = 5, read-out: Cmax at end of infusion): 1270 ng/mL
Cmax ([1]; human, plasma, intravenous, 90 mg, healthy volunteers, apomorphine challenge, read-out: minimum initial peak level (Cmax) at infusion to obtain efficacious levels / central NK1 blockade): 1000 to 1300 ng/mL
concentration at 2 h ([1]; human, plasma, intravenous, 30 mg, apomorphine challenge 2 h after dose, N = 5, read-out: Conc. at challenge): 112 ng/mL
concentration at 2 h ([1]; human, plasma, intravenous, 90 mg, apomorphine challenge 2 h after dose, N = 5, read-out: Conc. at challenge): 356 ng/mL
concentration at 20 h ([1]; human, plasma, intravenous, 90 mg, apomorphine challenge 20 h after dose, N = 5, read-out: Conc. at challenge): 69 ng/mL
Solubility in Water, Result ([3]; 5 mg/mL (50 mg in 10 mL water)): Very soluble
pH of solution ([3]; 5 mg/mL in water): 2.39
Solubility in Water, Result ([3]; 10 mg/mL (100 mg in 10 mL water)): Very soluble
pH of solution ([3]; 10 mg/mL in water): 2.14
Solubility in Water, Result ([3]; 15 mg/mL (150 mg in 10 mL water)): Soluble
pH of solution ([3]; 15 mg/mL in water): 2.02
Solubility in Water, Result ([3]; 20 mg/mL (200 mg in 10 mL water)): Soluble
pH of solution ([3]; 20 mg/mL in water): 1.87
Solubility in Water, Result ([3]; 25 mg/mL (250 mg in 10 mL water)): Soluble
pH of solution ([3]; 25 mg/mL in water): 1.81
Solubility in Water, Result ([3]; 30 mg/mL (300 mg in 10 mL water)): Soluble
pH of solution ([3]; 30 mg/mL in water): 1.75
Solubility in Water, Result ([3]; 35 mg/mL (350 mg in 10 mL water)): Soluble
pH of solution ([3]; 35 mg/mL in water): 1.72
Solubility in Water, Result ([3]; 40 mg/mL (400 mg in 10 mL water)): Soluble
pH of solution ([3]; 40 mg/mL in water): 1.66
Solubility in Water, Result ([3]; 45 mg/mL (450 mg in 10 mL water)): Soluble
pH of solution ([3]; 45 mg/mL in water): 1.54
Solubility in Water, Result ([3]; 50 mg/mL (500 mg in 10 mL water)): Soluble
pH of solution ([3]; 50 mg/mL in water): 1.52
Solubility ([3]; 50 mg/mL, stated after 'Ethanol was also assessed', solvent not explicit, golden yellow colour): freely soluble
Compound: Cc1ccccc1-c1cc(N2CCN(C)CC2)ncc1C(=O)N(C)Cc1cc(C(F)(F)F)cc(C(F)(F)F)c1 [Compound of Formula (I) 2HCl (R1 = CH3)]
Average Number of Retches or Vomits (central NK1 receptors; [4]): 4.2
Number of Retches (Events) (central NK1 receptors; [4]): 9
Number of Retches (Subjects) (central NK1 receptors; [4]): 2
Number of Vomits (Subjects) (central NK1 receptors; [4]): 3
Number of Vomits (Events) (central NK1 receptors; 30 mg, apomorphine challenge 2 h after dose, 2 of 5 subjects rescued): > 12
Average Number of Retches or Vomits (central NK1 receptors; [5]): 1.4
Number of Retches (Events) (central NK1 receptors; [5]): 5
Number of Retches (Subjects) (central NK1 receptors; [5]): 2
Number of Vomits (Events) (central NK1 receptors; [5]): 2/2
Number of Vomits (Subjects) (central NK1 receptors; [5]): 2/2
Average Number of Retches or Vomits (central NK1 receptors; [6]): 2.6
Number of Retches (Events) (central NK1 receptors; [6]): 12
Number of Retches (Subjects) (central NK1 receptors; [6]): 4
Number of Vomits (Events) (central NK1 receptors; [6]): 1/1
Number of Vomits (Subjects) (central NK1 receptors; [6]): 1/1
duration of reduction of retches/vomits once NK1 blockade is achieved (central NK1 receptors; after peak level of at least 1000-1300 ng/ml): ≥ 20 h
efficacy on ICP (ICP curves) [2]: no or minimal efficacy
